Test results reported in patent US8497240B2 (priority 2006, dated 2013).
Read-outs that look alike come from different tables or passages of the source.

What was measured:
[1] = format: in vivo, NIH/Swiss mice
Experimental: (§1) In FIG. 3A, bars represent mean±sd, n=6-10. […] Gavage (1.5 g/kg) was given at t=0, Sample was taken at t=30 min. […] In FIG. 3B, points represent mean±sem, n=8-15.
Peptide was injected IP at t=−5 minutes into 4-hour fasted NIH/Swiss female mice. […] In FIG. 17 points represent mean+/−sem. […] Samples were taken at t=60, t=120 and t=180.

[2] = format: in vivo, NIH/Swiss mice; settings: 80 nmol/kg, AUC240
Experimental: as §1
Points represent mean±sem.

| SMILES | OGTT/GL (%) ([1]; 30 nmol/kg) | Basal Glucose Lowering at Peptide Conc. of 80 nmol/kg [2] | OGTT/GL (%) ([1]; 350 nmol/kg) |
| --- | --- | --- | --- |
| CC[C@H](C)[C@H](NC(=O)[C@H](CO)NC(=O)[C@H](Cc1ccc(O)cc1)NC(=O)[C@H](CC(=O)O)NC(=O)[C@H](CO)NC(=O)[C@@H](NC(=O)[C@H](Cc1ccccc1)NC(=O)[C@@H](NC(=O)CNC(=O)[C@H](CCC(=O)O)NC(=O)[C@@H](C)NC(=O)[C@@H](N)Cc1ccc(O)cc1)[C@@H](C)O)[C@@H](C)CC)C(=O)N[C@@H](C)C(=O)N[C@@H](CCSC)C(=O)N[C@@H](CC(=O)O)C(=O)N[C@@H](CCCCN)C(=O)N[C@H](C(=O)N[C@@H](Cc1c[nH]cn1)C(=O)N[C@@H](CCC(N)=O)C(=O)N[C@@H](CCC(N)=O)C(=O)N[C@@H](CC(=O)O)C(=O)N[C@@H](Cc1ccccc1)C(=O)N[C@H](C(=O)N[C@@H](CC(N)=O)C(=O)N[C@@H](Cc1c[nH]c2ccccc12)C(=O)N[C@@H](CC(C)C)C(=O)N[C@@H](CC(C)C)C(=O)N[C@@H](C)C(=O)N[C@@H](CCC(N)=O)C(=O)N[C@@H](CCCCN)C(=O)N1CCC[C@H]1C(=O)N[C@@H](CCCCN)C(=O)N[C@@H](CC(C)C)C(=O)N[C@H](C(=O)N[C@@H](CCCCN)C(=O)N[C@@H](CC(C)C)C(=O)N[C@H](C(=O)N[C@@H](CCCCN)C(=O)N[C@@H](CO)C(N)=O)[C@@H](C)CC)[C@@H](C)CC)C(C)C)[C@@H](C)CC [0601GIP4346] | −20, 30% | −10%, AUC240 |  |
| CC[C@H](C)[C@H](NC(=O)[C@H](CO)NC(=O)[C@H](Cc1ccc(O)cc1)NC(=O)[C@H](CC(=O)O)NC(=O)[C@H](CO)NC(=O)[C@@H](NC(=O)[C@H](Cc1ccccc1)NC(=O)[C@@H](NC(=O)CNC(=O)[C@H](CCC(=O)O)NC(=O)[C@@H](C)NC(=O)[C@@H](N)Cc1ccc(O)cc1)[C@@H](C)O)[C@@H](C)CC)C(=O)N[C@@H](C)C(=O)N[C@@H](CCSC)C(=O)N[C@@H](CC(=O)O)C(=O)N[C@@H](CCCCN)C(=O)N[C@H](C(=O)N[C@@H](Cc1c[nH]cn1)C(=O)N[C@@H](CCC(N)=O)C(=O)N[C@@H](CCC(N)=O)C(=O)N[C@@H](CC(=O)O)C(=O)N[C@@H](Cc1ccccc1)C(=O)N[C@H](C(=O)N[C@@H](CC(N)=O)C(=O)N[C@@H](Cc1c[nH]c2ccccc12)C(=O)N[C@@H](CC(C)C)C(=O)N[C@@H](CC(C)C)C(=O)N[C@@H](C)C(=O)N[C@@H](CCC(N)=O)C(=O)N[C@@H](CCCCN)C(=O)N1CCC[C@H]1C(=O)N[C@@H](CO)C(=O)N[C@@H](CO)C(=O)NCC(=O)N[C@@H](C)C(=O)N1CCC[C@H]1C(=O)NCC(=O)N1CCC[C@H]1C(=O)N[C@@H](CO)C(N)=O)C(C)C)[C@@H](C)CC [Compound 0601GIP4952] | −21, % | −1, % |  |
| CC[C@H](C)[C@H](NC(=O)[C@H](CO)NC(=O)[C@H](Cc1ccc(O)cc1)NC(=O)[C@H](CC(=O)O)NC(=O)[C@H](CO)NC(=O)[C@@H](NC(=O)[C@H](Cc1ccccc1)NC(=O)[C@@H](NC(=O)CNC(=O)[C@H](CCC(=O)O)NC(=O)[C@@H](CCC(=O)O)NC(=O)[C@@H](N)Cc1ccc(O)cc1)[C@@H](C)O)[C@@H](C)CC)C(=O)N[C@@H](C)C(=O)N[C@@H](CCSC)C(=O)N[C@@H](CC(=O)O)C(=O)N[C@@H](CCCCN)C(=O)N[C@H](C(=O)N[C@@H](Cc1c[nH]cn1)C(=O)N[C@@H](CCC(N)=O)C(=O)N[C@@H](CCC(N)=O)C(=O)N[C@@H](CC(=O)O)C(=O)N[C@@H](Cc1ccccc1)C(=O)N[C@H](C(=O)N[C@@H](CC(N)=O)C(=O)N[C@@H](Cc1c[nH]c2ccccc12)C(=O)N[C@@H](CC(C)C)C(=O)N[C@@H](CC(C)C)C(=O)N[C@@H](C)C(=O)N[C@@H](CCC(N)=O)C(=O)N[C@@H](CCCCN)C(=O)N1CCC[C@H]1C(=O)N[C@@H](CO)C(=O)N[C@@H](CO)C(=O)NCC(=O)N[C@@H](C)C(=O)N1CCC[C@H]1C(=O)N1CCC[C@H]1C(=O)N1CCC[C@H]1C(=O)N[C@@H](CO)C(N)=O)C(C)C)[C@@H](C)CC [0601GIP4703] | −18, 30% |  |  |
| CC[C@H](C)[C@H](NC(=O)[C@H](CO)NC(=O)[C@H](Cc1ccc(O)cc1)NC(=O)[C@H](CC(=O)O)NC(=O)[C@H](CO)NC(=O)[C@@H](NC(=O)[C@H](Cc1ccccc1)NC(=O)[C@@H](NC(=O)CNC(=O)[C@H](CCC(=O)O)NC(=O)CCNC(=O)[C@@H](N)Cc1ccc(O)cc1)[C@@H](C)O)[C@@H](C)CC)C(=O)N[C@@H](C)C(=O)N[C@@H](CCSC)C(=O)N[C@@H](CC(=O)O)C(=O)N[C@@H](CCCCN)C(=O)N[C@H](C(=O)N[C@@H](Cc1c[nH]cn1)C(=O)N[C@@H](CCC(N)=O)C(=O)N[C@@H](CCC(N)=O)C(=O)N[C@@H](CC(=O)O)C(=O)N[C@@H](Cc1ccccc1)C(=O)N[C@H](C(=O)N[C@@H](CC(N)=O)C(=O)N[C@@H](Cc1c[nH]c2ccccc12)C(=O)N[C@@H](CC(C)C)C(=O)N[C@@H](CC(C)C)C(=O)N[C@@H](C)C(=O)N[C@@H](CCC(N)=O)C(=O)N[C@@H](CCCCN)C(=O)N1CCC[C@H]1C(=O)N[C@@H](CO)C(=O)N[C@@H](CO)C(=O)NCC(=O)N[C@@H](C)C(=O)N1CCC[C@H]1C(=O)N1CCC[C@H]1C(=O)N1CCC[C@H]1C(=O)N[C@@H](CO)C(N)=O)C(C)C)[C@@H](C)CC [0601GIP4458] | −14, 30% |  |  |
| CC[C@H](C)[C@H](NC(=O)[C@H](CO)NC(=O)[C@H](Cc1ccc(O)cc1)NC(=O)[C@H](CC(=O)O)NC(=O)[C@H](CO)NC(=O)[C@@H](NC(=O)[C@H](Cc1ccccc1)NC(=O)[C@@H](NC(=O)CNC(=O)[C@H](CCC(=O)O)NC(=O)[C@@H](C)NC(=O)[C@@H](N)Cc1ccc(O)cc1)[C@@H](C)O)[C@@H](C)CC)C(=O)N[C@@H](C)C(=O)N[C@@H](CCSC)C(=O)N[C@@H](CC(=O)O)C(=O)N[C@@H](CCCCN)C(=O)N[C@H](C(=O)N[C@@H](Cc1c[nH]cn1)C(=O)N[C@@H](CCC(N)=O)C(=O)N[C@@H](CCC(N)=O)C(=O)N[C@@H](CC(=O)O)C(=O)N[C@@H](Cc1ccccc1)C(=O)N[C@H](C(=O)N[C@@H](CC(N)=O)C(=O)N[C@@H](Cc1c[nH]c2ccccc12)C(=O)N[C@@H](CC(C)C)C(=O)N[C@@H](CC(C)C)C(=O)N[C@@H](C)C(=O)N[C@@H](CCC(N)=O)C(=O)N[C@@H](CCCCN)C(=O)N1CCC[C@H]1C(=O)N[C@@H](CO)C(=O)N[C@@H](CCCCN)C(=O)N[C@@H](CCC(=O)O)C(=O)N[C@H](C(=O)N[C@H](C(=O)N[C@@H](CO)C(N)=O)[C@@H](C)CC)[C@@H](C)CC)C(C)C)[C@@H](C)CC [Compound 0601GIP4234] |  |  | −17 |
